Experimental data taken from publication PMC9054821, “Molecular basis of antibiotic self-resistance in a bee larvae pathogen” (Nature Communications, 2022).

Biological target: T1, PamZ (Paenibacillus larvae, UniProt V9W634)
T1 construct: gene ERIC2_c18030; full length, 275 residues; pET28a(+) N-terminal His6-tag with TEV site, tag cut; E. coli BL21-Gold(DE3); monomer
Experiment: X-ray crystal structure
Format: binding
Settings: 1.34 Å; co-substrate bound to the C-terminal GNAT domain only; crystals at pH 4.6, 293 K

T1 sequence (V9W634 entry or part of it): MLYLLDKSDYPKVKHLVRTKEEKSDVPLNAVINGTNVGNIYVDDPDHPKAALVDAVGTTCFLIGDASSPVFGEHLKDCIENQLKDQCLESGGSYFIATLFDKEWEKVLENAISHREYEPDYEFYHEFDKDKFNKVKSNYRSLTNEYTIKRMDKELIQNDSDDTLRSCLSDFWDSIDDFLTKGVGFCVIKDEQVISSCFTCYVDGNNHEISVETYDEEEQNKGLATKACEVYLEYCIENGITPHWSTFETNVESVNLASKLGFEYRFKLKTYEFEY

Compound: CC(=O)SCCNC(=O)CCNC(=O)[C@H](O)C(C)(C)COP(=O)(O)OP(=O)(O)OC[C@H]1O[C@@H](n2cnc3c(N)ncnc32)[C@H](O)[C@@H]1OP(=O)(O)O [acetyl-CoA]
- X-ray crystal structure: We solved the crystal structure of PamZ in complex with acetyl-CoA
